Data published in patent publication US20040097565A1, “Analgesic and antiinflammatory drugs” (priority 2001, published 2004).
Marks after values point to notes of the source that are not given here.

Legend:
[1] = system: pain threshold at right rear limb plantar part of SHRSP strain male rats; experiment: Pain threshold improving action in SHRSP rat (Randall & Selitto's method); type: in vivo; conditions: for Pain threshold (g) before administration of compound A: baseline before oral administration
Experimental: Pain Threshold Improving Action in SHRSP Rat (Easily Cerebral Apoplexy Developing Spontaneous Hypertension Rat)
SHRSP strain male rats (27 weeks old, Nihon Clea, 6 animals per group) were used. […] Measurement of a pain threshold value was performed according to a Randall & Selitto's method (Arch. Int. Pharmacodyn. Ther. 111, 409-419, 1957). Immediately after therefrom, a compound A [2-ethoxy-1-[[2′-(5-oxo-2,5-dihydro-1,2,4-oxadoazol-3-yl)biphenyl-4-yl]methyl]-1H-benzimidazole-7-carboxylic acid] was orally administered (0.5 ml/100 g, b.w.) and, one hour after, a pain threshold value was measured. Only a solvent was orally administered to a control group. Regarding the effect of a specimen, drug efficacy assessment was performed by threshold pressure of a control group and a specimen administration group.

[2] = system: acetic acid writhing in ICR strain male mice; experiment: Acetic acid writhing method (analgesic action); type: in vivo, mouse; conditions: 30 mg/kg oral, 30 minutes before 0.6% acetic acid i.p., counted for 20 minutes
Experimental: Acetic Acid Writhing Method
Method: ICR strain male mice (5 weeks old, Nihon Clea) were used at 10 animals per group, and a specimen [compound A: 2-ethocy-1-[[2′-(5-oxo-2,5-dihydro-1,2,4-oxadiazol-3-yl)biphenyl-4-yl]methyl]-1H-benzimidazole-7-carboxylic acid] was orally administered (0.2 ml/10 g). After 30 minutes, a 0.6% acetic acid solution was intraperitoneally injected (0.1 ml/10 g) and, immediately, mice were placed into a transparent acryl resin observation cage, a time of writhing and stretching induced for 20 minutes therefrom was counted, and an inhibition rate (%) was calculated from average times of a control group and a specimen administration group.

[3] = system: carrageenin edema, right rear limb plantar part of SD strain male rats; experiment: Carrageenin edema method (antiinflammatory action); type: in vivo, rat; conditions: 30 mg/kg oral, 1 hour before carrageenin, limb volume 3 hours after, relative to control
Experimental: Method: SD strain male rats (6 weeks old, Nihon Clea) were used at 6 animals per group. The carrageenin edema method was performed according to a method of Winter et al. (Proc. Soc. exp. Biol. Med., 111, 544-547, 1962). After a volume of a right rear limb plantar part was measured, a specimen [compound A: 2-ethoxy-1-[[2′-(5-oxo-2,5-dihydro-1,2,4-oxadiazol-3-yl)biphenyl-4-yl]methyl]-1H benzimidazole-7-carboxylic acid] was orally administered (1 ml/100 g), and water was additionally added to a total amount of 5 ml/rat. After one hour, 0.05 ml of a 1% carrageenin physiological saline solution was subcutaneously injected to induce edema. Whereby, a volume of a right rear limb plantar part was measured after 3 hours. The effect of a specimen was obtained by a difference of a limb volume between before carrageenin injection and after 3 hours, and calculating an inhibition rate (%) relative to a control group.

CCOc1nc2cccc(C(=O)O)c2n1Cc1ccc(-c2ccccc2-c2nc(=O)o[nH]2)cc1 [Compound A, 2-Ethoxy-1-[[2′-(5-oxo-2,5-dihydro-1,2,4-oxadiazol-3-yl)biphenyl-4-yl]methyl]-1H-benzimidazole-7-carboxylic acid]
Pain threshold (g) before administration of compound A ([1]; 1 mg/kg group): 210 g | Pain threshold (g) 1 hour after administration of compound A ([1]; 1 mg/kg oral): 277* g | Pain threshold (g) before administration of compound A ([1]; 3 mg/kg group): 213 g | Pain threshold (g) 1 hour after administration of compound A ([1]; 3 mg/kg oral): 352* g | Pain threshold (g) before administration of compound A ([1]; 10 mg/kg group): 212 g | Pain threshold (g) 1 hour after administration of compound A ([1]; 10 mg/kg oral): 430* g | Pain threshold (g) before administration of compound A ([1]; 30 mg/kg group): 214 g | Pain threshold (g) 1 hour after administration of compound A ([1]; 30 mg/kg oral): 470* g | Inhibition rate (%) of writhing and stretching [2]: 52* % | Inhibition rate (%) of carrageenin edema [3]: 34* %
